Measurements from patent US20110318768A1, “METHOD FOR DETERMINING SENSITIVITY OF TUMOR CELLS TO TYROSINE KINASE INHIBITOR AND COMPUTER PROGRAM PRODUCT” (SYSMEX CORPORATION, priority 2010, published 2011).
Where two headings read alike, the source gives them in different places.

Key:
BT-474 = details: Konecny et al.; cited from earlier work
T47D = details: Konecny et al.; cited from earlier work
MDA-MB231 = details: Konecny et al.; cited from earlier work
SK-Br-3 = details: Konecny et al.; cited from earlier work
[1] = system: HCC1419 breast cancer cell line; experiment: Growth inhibition by lapatinib (Cell Titer-Glo); assay type: cell-based; details: Homo sapiens
Experimental: (§1) The sensitivity of cell lines to EGFR/HER2 inhibitor was examined by culturing breast cancer cell lines shown in Table 3 in the presence of EGFR/HER2 inhibitor and examining growth inhibition effects on the cell lines.
(§2) The breast cancer cell lines shown in Table 3 were seeded in a 96 well assay plate (#3917: Costar) at 4,000 cells/well, and cultured at 37° C. After 24 hours, the medium was changed to a medium containing a DMSO solution of lapatinib ditosylate hydrate (hereafter also referred to as lapatinib; #L-4804: LC Laboratories) with various concentrations, and the culture was continued at 37° C. for 72 hours. The concentrations of lapatinib in the medium were 0 (control), 0.1, 1, 10, 30, 100, 300, 1,000 and 3,000, and 10,000 nM. The concentration of DMSO in the medium is constant (0.1 (v/v) %) in all of the wells. The cell number in the wells at 0 and 72 hours after exchange of the medium was measured using Cell Titer-Glo Luminescent Cell Viability Assay (#G7571: Promega KK.). The lapatinib concentration to yield half the cell number of the control in 72 hours was determined by fitting with a logistic curve and the concentration was IC50. The cell line whose IC50 was less than 1 μM was defined as a “sensitive line”, while the cell line whose IC50 was 1 μM or more was defined as an “insensitive line”.

[2] = system: BT-20 breast cancer cell line; experiment: Growth inhibition by lapatinib (Cell Titer-Glo); assay type: cell-based; details: Homo sapiens
Experimental: as §1, §2

[3] = system: UACC-893 breast cancer cell line; experiment: Growth inhibition by lapatinib (Cell Titer-Glo); assay type: cell-based; details: Homo sapiens
Experimental: as §1, §2

[4] = system: MDA-MB-157 breast cancer cell line; experiment: Growth inhibition by lapatinib (Cell Titer-Glo); assay type: cell-based; details: Homo sapiens
Experimental: as §1, §2

[5] = system: HS578T breast cancer cell line; experiment: Growth inhibition by lapatinib (Cell Titer-Glo); assay type: cell-based; details: Homo sapiens, Hs-578T
Experimental: as §1, §2

[6] = system: BT-549 breast cancer cell line; experiment: Growth inhibition by lapatinib (Cell Titer-Glo); assay type: cell-based; details: Homo sapiens
Experimental: as §1, §2

[7] = system: HCC1954 breast cancer cell line; experiment: Growth inhibition by lapatinib (Cell Titer-Glo); assay type: cell-based; details: Homo sapiens
Experimental: as §1, §2

[8] = system: T-47D breast cancer cell line; experiment: Growth inhibition by lapatinib (Cell Titer-Glo); assay type: cell-based; details: Homo sapiens, T47D
Experimental: as §1, §2

[9] = system: MDA-MB-436 breast cancer cell line; experiment: Growth inhibition by lapatinib (Cell Titer-Glo); assay type: cell-based; details: Homo sapiens
Experimental: as §1, §2

[10] = system: HCC1937 breast cancer cell line; experiment: Growth inhibition by lapatinib (Cell Titer-Glo); assay type: cell-based; details: Homo sapiens
Experimental: as §1, §2

[11] = system: ZR-75-30 breast cancer cell line; experiment: Growth inhibition by lapatinib (Cell Titer-Glo); assay type: cell-based; details: Homo sapiens
Experimental: as §1, §2

[12] = system: SK-BR-3 breast cancer cell line; experiment: Growth inhibition by lapatinib (Cell Titer-Glo); assay type: cell-based; details: Homo sapiens
Experimental: as §1, §2

[13] = system: MDA-MB-453 breast cancer cell line; experiment: Growth inhibition by lapatinib (Cell Titer-Glo); assay type: cell-based; details: Homo sapiens
Experimental: as §1, §2

[14] = system: MDA-MB-231 breast cancer cell line; experiment: Growth inhibition by lapatinib (Cell Titer-Glo); assay type: cell-based; details: Homo sapiens
Experimental: as §1, §2

[15] = system: BT-474 breast cancer cell line; experiment: Growth inhibition by lapatinib (Cell Titer-Glo); assay type: cell-based; details: Homo sapiens
Experimental: as §1, §2

[16] = system: HCC1569 breast cancer cell line; experiment: Growth inhibition by lapatinib (Cell Titer-Glo); assay type: cell-based; details: Homo sapiens
Experimental: as §1, §2

[17] = system: AU565 breast cancer cell line; experiment: Growth inhibition by lapatinib (Cell Titer-Glo); assay type: cell-based; details: Homo sapiens
Experimental: as §1, §2

[18] = system: UACC-812 breast cancer cell line; experiment: Growth inhibition by lapatinib (Cell Titer-Glo); assay type: cell-based; details: Homo sapiens
Experimental: as §1, §2

[19] = system: HCC1428 breast cancer cell line; experiment: Growth inhibition by lapatinib (Cell Titer-Glo); assay type: cell-based; details: Homo sapiens
Experimental: as §1, §2

[20] = system: HCC1806 breast cancer cell line; experiment: Growth inhibition by lapatinib (Cell Titer-Glo); assay type: cell-based; details: Homo sapiens
Experimental: as §1, §2

[21] = system: MDA-MB-435S breast cancer cell line; experiment: Growth inhibition by lapatinib (Cell Titer-Glo); assay type: cell-based; details: Homo sapiens
Experimental: as §1, §2

[22] = system: MCF7 breast cancer cell line; experiment: Growth inhibition by lapatinib (Cell Titer-Glo); assay type: cell-based; details: Homo sapiens
Experimental: as §1, §2

[23] = system: CAMA-1 breast cancer cell line; experiment: Growth inhibition by lapatinib (Cell Titer-Glo); assay type: cell-based; details: Homo sapiens
Experimental: as §1, §2

[24] = system: HCC202 breast cancer cell line; experiment: Growth inhibition by lapatinib (Cell Titer-Glo); assay type: cell-based
Experimental: as §1, §2

[25] = system: MDA-MB-468 breast cancer cell line; experiment: Growth inhibition by lapatinib (Cell Titer-Glo); assay type: cell-based; details: Homo sapiens
Experimental: as §1, §2

[26] = system: ZR-75-1 breast cancer cell line; experiment: Growth inhibition by lapatinib (Cell Titer-Glo); assay type: cell-based; details: Homo sapiens
Experimental: as §1, §2

[27] = system: BT-483 breast cancer cell line; experiment: Growth inhibition by lapatinib (Cell Titer-Glo); assay type: cell-based; details: Homo sapiens
Experimental: as §1, §2

[28] = system: MDA-MB-415 breast cancer cell line; experiment: Growth inhibition by lapatinib (Cell Titer-Glo); assay type: cell-based; details: Homo sapiens
Experimental: as §1, §2

MCF7 = details: Konecny et al.; cited from earlier work
[29] = 72 hours culture, read-out: IC50
[30] = read-out: Reference example 1 Sensitivity to lapatinib

IC50 [1, 29]: 124 nM
IC50 [1, 30]: < 1000 nM
IC50 [2, 29]: > 10000 nM
IC50 [2, 30]: ≥ 1000 nM
IC50 [3, 29]: 482 nM
IC50 [3, 30]: < 1000 nM
IC50 [4, 29]: > 10000 nM
IC50 [4, 30]: ≥ 1000 nM
IC50 [5, 29]: > 10000 nM
IC50 [5, 30]: ≥ 1000 nM
IC50 [6, 29]: > 10000 nM
IC50 [6, 30]: ≥ 1000 nM
IC50 [7, 29]: 1470 nM
IC50 [7, 30]: ≥ 1000 nM
IC50 [8, 29]: > 10000 nM
IC50 [8, 30]: ≥ 1000 nM
IC50 [9, 29]: > 10000 nM
IC50 [9, 30]: ≥ 1000 nM
IC50 [10, 29]: > 10000 nM
IC50 [10, 30]: ≥ 1000 nM
IC50 [11, 29]: 211 nM
IC50 [11, 30]: < 1000 nM
IC50 [12, 29]: 315 nM
IC50 [12, 30]: < 1000 nM
IC50 [13, 29]: 309 nM
IC50 [13, 30]: < 1000 nM
IC50 [14, 29]: > 10000 nM
IC50 [14, 30]: ≥ 1000 nM
IC50 [15, 29]: 80 nM
IC50 [15, 30]: < 1000 nM
IC50 [16, 29]: 4820 nM
IC50 [16, 30]: ≥ 1000 nM
IC50 [17, 29]: 157 nM
IC50 [17, 30]: < 1000 nM
IC50 [18, 29]: 490 nM
IC50 [18, 30]: < 1000 nM
IC50 [19, 29]: > 10000 nM
IC50 [19, 30]: ≥ 1000 nM
IC50 [20, 29]: > 10000 nM
IC50 [20, 30]: ≥ 1000 nM
IC50 [21, 29]: > 10000 nM
IC50 [21, 30]: ≥ 1000 nM
IC50 [22, 29]: > 10000 nM
IC50 [22, 30]: ≥ 1000 nM
IC50 [23, 29]: > 10000 nM
IC50 [23, 30]: ≥ 1000 nM
IC50 [24, 29]: 2470 nM
IC50 [24, 30]: ≥ 1000 nM
IC50 [25, 29]: 3780 nM
IC50 [25, 30]: ≥ 1000 nM
IC50 [26, 29]: > 10000 nM
IC50 [26, 30]: ≥ 1000 nM
IC50 [27, 29]: > 10000 nM
IC50 [27, 30]: ≥ 1000 nM
IC50 [28, 29]: > 10000 nM
IC50 [28, 30]: ≥ 1000 nM
Compound: CS(=O)(=O)CCNCc1ccc(-c2ccc3ncnc(Nc4ccc(OCc5cccc(F)c5)c(Cl)c4)c3c2)o1 [lapatinib, N-(3-chloro-4-[[(3-fluorophenyl)methyl]oxy]phenyl)-6-[5-([[2-(methylsulfonyl)ethyl]amino]methyl)-2-furanyl]-4-quinazolineamine bis(4-methylbenzenesulfonate)monohydrate]
lapatinib sensitivity of cell line (BT-474): sensitive
lapatinib sensitivity of cell line (T47D): insensitive
lapatinib sensitivity of cell line (MDA-MB231): insensitive
lapatinib sensitivity of cell line (SK-Br-3): sensitive
lapatinib sensitivity of cell line (MCF7): insensitive
